Experimental data reported in patent US20240383887A1, “DEUTERATED IRAK DEGRADERS AND USES THEREOF” (Kymera Therapeutics, Inc., priority 2021, published 2024).

What was measured:
[1] = test system: OCI-LY10 cells; test: CTG Cell Viability Assay with OCI-LY10; assay type: cell-based; details: Homo sapiens, 96 h, 4 days, CellTiter-Glo, read-out: CTG Cell Viability in OCI-LY10: Average external DC50
Method: Compound-mediated viability effect on OCI-LY10 or TMD8 was quantitatively determined using the CellTiter-Glo® Luminescent Cell Viability Assay kit from Promega (Catalog number G7570) following manufacturer's recommended procedures. Briefly, OCI-LY10 cells were seeded into 384 well plates (Grenier Bio-One, Catalog number 781080) with a density of 10,000 cells per well. Compounds were then added to the assay plate with final top concentration of 10 μM and 1:3 dilution series with total of 9 doses. The final DMSO concentration was normalized to 0.2%. The assay plates were incubated at 37° C. for 4 days under 5% CO2. Then the assay plate was equilibrated at room temperature for 10 minutes. To determine cell viability, 30 μL Cell Titer Glo reagent was added to each well and the assay plate was centrifuged at 1000 rpm for 30 second, incubated at room temperature for 10 min, and analyzed by detecting the luminescence using a multimode plate reader (EnVision 2105, PerkinElmer). The data was then analyzed by software Prism 7.0 from GraphPad and the dose response curves were fit using a three-parameter logistic equation to calculate IC50.
The letter codes for IRAK4 IC50 include: A (<0.05 μM), B (0.05-0.1 μM), C (0.1-0.5 μM), D (0.5-1.0 μM), and E (>1.0 μM).

[2] = molecular target: T1, IRAK4 (Homo sapiens, UniProt Q9NWZ3); test: IRAK4 MSD degradation in OCI-LY10; assay type: cell-based; details: OCI-LY10 cells, 24 hrs, Meso Scale Discovery; read-out: IRAK4 MSD degradation in OCI-LY10 at 24 hrs: Average external-Abs DC50
T1 construct: endogenous in cells; host or cells: OCI-LY10
T1 sequence (Q9NWZ3 1-460): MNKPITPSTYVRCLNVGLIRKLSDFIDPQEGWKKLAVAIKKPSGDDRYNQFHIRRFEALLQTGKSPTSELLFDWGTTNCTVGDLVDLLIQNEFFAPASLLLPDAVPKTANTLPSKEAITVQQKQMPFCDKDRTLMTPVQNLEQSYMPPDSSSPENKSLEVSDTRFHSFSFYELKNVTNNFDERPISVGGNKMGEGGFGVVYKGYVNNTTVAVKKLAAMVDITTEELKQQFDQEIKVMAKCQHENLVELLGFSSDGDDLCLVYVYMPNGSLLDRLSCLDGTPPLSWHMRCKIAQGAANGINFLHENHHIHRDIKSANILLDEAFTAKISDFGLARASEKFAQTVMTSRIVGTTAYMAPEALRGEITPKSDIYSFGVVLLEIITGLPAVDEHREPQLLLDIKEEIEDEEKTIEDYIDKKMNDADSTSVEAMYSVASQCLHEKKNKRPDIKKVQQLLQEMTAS
Method: Degradation of IRAK4 in OCI-LY10 was quantitatively measured using Meso Scale Discovery technology. OCI-LY10 cells were seeded in 96-well plates (Corning 3799) with a density of 300,000 cells per well in 100 μL fresh media. Compounds were then added to the assay plates with a final top concentration of 1 to 10 μM in a 1:3 dilution series with total of 8 doses. The assay plates were then incubated for 4 to 24 hours at 37 under 5% CO2. The assay plates were then centrifuged for 5 minutes and the cell pellets were treated with 100 μL/well RIPA lysis buffer (Boston BioProducts BP-115D) with proteinase inhibitors. To prepare MSD assay plates (Meso Scale Discovery Catalog number L15XA-3), the plates were coated with 2 μg/mL capture antibody (mouse Anti-IRAK4 antibody [2H9], ab119942) in PBS, at 40 μL/well. […] The assay plates were then incubated at room temperature for 1 hour, washed 3 times with 150 μL/well TBST buffer, and 150 μL/well MSD reading buffer (Meso Scale Discovery catalog number R92TC-2) was added. The plates were then analyzed by a MSD reader (Meso Scale Discovery, Model Quick Plex SQ 120). The data was then analyzed by software Prism 7.0 from GraphPad and the dose-depended IRAK4 degradation were fit using a three-parameter logistic equation to calculate DC50. […]

IC50 [1]: 100 to 500 nM
DC50 [2]: < 10 nM
Structure (SMILES): [2H]C([2H])([2H])C(O)(c1cc2nc([C@H]3CC[C@H](CN4CC5(CC(CCNc6cccc7c6C(=O)N(C6CCC(=O)NC6=O)C7=O)C5)C4)CC3)sc2cc1NC(=O)c1cccc(C(F)(F)F)n1)C([2H])([2H])[2H] (some centres unmarked) [Compound I-1, N-[2-[4-[[6-[2-[[2-(2,6-dioxo-3-piperidyl)-1,3-dioxo-isoindolin-4-yl]amino]ethyl]-2-azaspiro[3.3]heptan-2-yl]methyl]cyclohexyl]-5-[2,2,2-trideuterio-1-hydroxy-1-(trideuteriomethyl)ethyl]-1,3-benzothiazol-6-yl]-6-(trifluoromethyl)pyridine-2-carboxamide]
